In a compilation of properties of binary mixtures (doi:10.1016/j.jct.2020.106232):

Experiment: xn = mol fraction of the nth substance listed
Conditions: 100 kPa

Which viscosity (293.15 K, x2 = 0) does the source give for `CCCCCO` + CCCC[n+]1ccn(C)c1.O=[N+]([O-])[O-] here?
Its viscosity is 4.03 mPa·s.

And the viscosity (303.15 K, x2 = 0)?
The viscosity was 3.04 mPa·s.

What about the viscosity (313.15 K, x2 = 0) of the same compound?
The viscosity was 2.33 mPa·s.

What about the viscosity (323.15 K, x2 = 0) of the same compound?
The viscosity was 1.81 mPa·s.

For `CCCC[n+]1ccn(C)c1.O=[N+]([O-])[O-]` + CCCCCO, which viscosity (293.15 K, x1 = 0.0824) is on record?
Its viscosity is 5.32 mPa·s.

And the viscosity (293.15 K, x1 = 0.1538)?
Its viscosity is 6.83 mPa·s.

And the viscosity (293.15 K, x1 = 0.2318)?
Its viscosity is 8.87 mPa·s.

What about the viscosity (293.15 K, x1 = 0.3425) of the same compound?
The viscosity was 13.1 mPa·s.

What about the viscosity (293.15 K, x1 = 0.6481) of the same compound?
Its viscosity is 40.3 mPa·s.

And the viscosity (293.15 K, x1 = 0.8416)?
Its viscosity is 94.9 mPa·s.

And the viscosity (293.15 K, x1 = 0.9415)?
Its viscosity is 160 mPa·s.

And the viscosity (293.15 K, x1 = 1)?
Its viscosity is 224 mPa·s.

And the viscosity (303.15 K, x1 = 0.0824)?
Its viscosity is 3.84 mPa·s.

What about the viscosity (303.15 K, x1 = 0.1538) of the same compound?
Its viscosity is 4.88 mPa·s.

What about the viscosity (303.15 K, x1 = 0.2318) of the same compound?
Its viscosity is 6.36 mPa·s.

What about the viscosity (303.15 K, x1 = 0.3425) of the same compound?
Its viscosity is 9.46 mPa·s.

And the viscosity (303.15 K, x1 = 0.4363)?
The viscosity was 13.2 mPa·s.

And the viscosity (303.15 K, x1 = 0.5668)?
Its viscosity is 21 mPa·s.

What about the viscosity (303.15 K, x1 = 0.6481) of the same compound?
Its viscosity is 28.1 mPa·s.

And the viscosity (303.15 K, x1 = 0.7481)?
Its viscosity is 41 mPa·s.

What about the viscosity (303.15 K, x1 = 0.8416) of the same compound?
The viscosity was 59.8 mPa·s.

What about the viscosity (303.15 K, x1 = 0.9415) of the same compound?
The viscosity was 94 mPa·s.

And the viscosity (303.15 K, x1 = 1)?
The viscosity was 125 mPa·s.

What about the viscosity (313.15 K, x1 = 0.0824) of the same compound?
The viscosity was 2.94 mPa·s.

What about the viscosity (313.15 K, x1 = 0.1538) of the same compound?
Its viscosity is 3.59 mPa·s.

What about the viscosity (313.15 K, x1 = 0.2318) of the same compound?
The viscosity was 4.68 mPa·s.

What about the viscosity (313.15 K, x1 = 0.3425) of the same compound?
The viscosity was 6.76 mPa·s.

And the viscosity (313.15 K, x1 = 0.4363)?
Its viscosity is 9.14 mPa·s.

What about the viscosity (313.15 K, x1 = 0.5668) of the same compound?
The viscosity was 14 mPa·s.

And the viscosity (313.15 K, x1 = 0.7481)?
The viscosity was 27 mPa·s.

And the viscosity (313.15 K, x1 = 1)?
Its viscosity is 75.1 mPa·s.

What about the viscosity (323.15 K, x1 = 0.1538) of the same compound?
Its viscosity is 2.69 mPa·s.

And the viscosity (323.15 K, x1 = 0.2318)?
Its viscosity is 3.38 mPa·s.

What about the viscosity (323.15 K, x1 = 0.3425) of the same compound?
The viscosity was 4.63 mPa·s.

And the viscosity (323.15 K, x1 = 0.4363)?
Its viscosity is 6.19 mPa·s.

And the viscosity (323.15 K, x1 = 0.5668)?
Its viscosity is 9.37 mPa·s.

And the viscosity (323.15 K, x1 = 0.6481)?
The viscosity was 12.31 mPa·s.

And the viscosity (323.15 K, x1 = 0.7481)?
The viscosity was 17.3 mPa·s.

And the viscosity (323.15 K, x1 = 0.8416)?
Its viscosity is 24.3 mPa·s.

What about the viscosity (323.15 K, x1 = 1) of the same compound?
The viscosity was 45.2 mPa·s.
